Here are results for 13 molecules from PubChem BioAssay (NCI).

Some test systems named below: OVCAR-5 ovarian; 786-0 renal; KM20L2 colon; BT-549 breast; HOP-18 NSCLC; HCT-15 colon; SN12C renal; SNB-19 CNS; MCF7 breast; NCI/ADR-RES ovarian.
Holding throughout (experiment): growth of human tumour cells (NCI), 48 h

Structures are written as SMILES. Values joined by “and” are separate entries in the source; they are usually repeats but may differ in a detail not shown here. Equal values may be shown once.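 Step 1: Grow cells in 96-well plates. Step 2: Expose to compound for 48 hours at 5 concentrations. Step 3: Interpolate endpoints linearly; if unreached, use highest concentration. GI50 marks 50% less growth. Definition used: TGI = concentration required for complete inhibition of growth.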 Some results are limits rather than exact numbers.

With `Cc1ccc(S(=O)(=O)SC/C=C\CSS(=O)(=O)c2ccc(C)cc2)cc1`, the GI50 in the assay on OVCAR-5 ovarian is > 78.5 µM and 30 µM; in the assay on HOP-18 NSCLC, > 100 µM and 35.6 µM; in the assay on HCT-15 colon, 6.16 µM and 43.4 µM. For the same molecule, the TGI in the assay on OVCAR-5 ovarian is > 100 µM; with 786-0 renal, > 66.2 µM and 32.3 µM; in the assay on KM20L2 colon it was > 88.5 µM and 49.1 µM; in the assay on BT-549 breast, 25400 nM; in the assay with HOP-18 NSCLC it was > 100 µM and 82.5 µM; in the assay on HCT-15 colon, > 100 µM. For the same molecule, the TGI with SN12C renal is 88.5 µM and 37.1 µM; with SNB-19 CNS, > 89.3 µM and 77.7 µM; in the assay with MCF7 breast, > 77200 nM; with NCI/ADR-RES ovarian, > 100000 nM.

With `COc1cc(Cl)cc(=O)c(O)c1OC`, the TGI in the assay on OVCAR-5 ovarian, with 786-0 renal, in the assay on KM20L2 colon, in the assay with HOP-18 NSCLC, with HCT-15 colon and with SN12C renal was > 100 µM in each case. Further, the TGI in the assay with SNB-19 CNS is > 100 µM.

Consider `CC1CC(C)CC(C)C(O)/C(C#N)=C/C=C/CC(C2CCCC2C(=O)O)OC(=O)CC(O)C(C)C1` (stereo not drawn), for which the GI50 in the assay with OVCAR-5 ovarian was 0.023 µM; in the assay with 786-0 renal it was 21.3 nM; with BT-549 breast it was 50.1 nM; in the assay with HCT-15 colon it was 0.0229 µM; in the assay on SN12C renal, 34.2 nM; with SNB-19 CNS, 23.2 nM. The GI50 is 6.14 nM with MCF7 breast; 187 nM and < 19.6 nM with NCI/ADR-RES ovarian. Moreover, the TGI with OVCAR-5 ovarian is 0.282 µM and < 0.0365 µM; in the assay on 786-0 renal it was 0.171 µM and 0.0536 µM; in the assay with KM20L2 colon, 1.43 µM; in the assay on BT-549 breast it was 636 nM and 321 nM; in the assay with HOP-18 NSCLC it was 0.0612 µM; in the assay on HCT-15 colon it was 0.114 µM and 0.104 µM. For the same molecule, the TGI in the assay with SN12C renal was 0.342 µM and 0.727 µM; in the assay on SNB-19 CNS, 0.109 µM and 0.0359 µM; with MCF7 breast, 43.6 nM; with NCI/ADR-RES ovarian, 265 nM.

Turning to `Cc1cc2c(C)nn(Cc3ccccc3)c2c(C(=O)O)c1C`, the TGI in the assay on OVCAR-5 ovarian, in the assay on 786-0 renal, with KM20L2 colon, in the assay on HOP-18 NSCLC, in the assay with HCT-15 colon and with SN12C renal was > 100 µM throughout. Further, in the assay on SNB-19 CNS, the TGI is > 100 µM.

For the molecule `CCOC(=O)NC(=O)c1cn(CCN2CCN(C(=O)NCCCCCCNC(=O)N3CCN(CCn4cc(C(=O)NC(=O)OCC)c(=O)[nH]c4=O)CC3)CC2)c(=O)[nH]c1=O`, the TGI in the assay on OVCAR-5 ovarian, in the assay with 786-0 renal, in the assay with KM20L2 colon, with HOP-18 NSCLC, with HCT-15 colon and in the assay on SN12C renal was > 100 µM in each case. For the same molecule, the TGI in the assay with SNB-19 CNS was > 100 µM.

On to `C/C=C/C(C#N)O[Si](C)(C)C` (stereo not drawn), for which the TGI in the assay with OVCAR-5 ovarian, with 786-0 renal, with KM20L2 colon, in the assay with HOP-18 NSCLC, in the assay with HCT-15 colon and with SN12C renal was > 100 µM each time. Further, in the assay on SNB-19 CNS, the TGI is > 100 µM.

Turning to `C=C(c1ccccc1)C1(O)CCCCC1N` (stereo not drawn), the TGI with OVCAR-5 ovarian, in the assay on 786-0 renal, with KM20L2 colon, in the assay on HOP-18 NSCLC, in the assay with HCT-15 colon and with SN12C renal was > 100 µM in each case. For the same molecule, the TGI in the assay on SNB-19 CNS is > 100 µM.

In the case of `O=C1Nc2ccccc2C1(O)C/C(=N/O)c1ccc2ccccc2c1` (stereo not drawn), the TGI in the assay on OVCAR-5 ovarian, with 786-0 renal, with KM20L2 colon, in the assay on HOP-18 NSCLC, with HCT-15 colon and in the assay with SN12C renal was > 100 µM throughout. In addition, in the assay with SNB-19 CNS, the TGI is > 100 µM.

On to `O=C1C2C3C=C4c5ccccc5N(c5ccccc5)C4(C2C(=O)N1c1ccccc1)C1C(=O)N(c2ccccc2)C(=O)C31` (stereo not drawn), for which the TGI with OVCAR-5 ovarian, with 786-0 renal, with KM20L2 colon, with HOP-18 NSCLC, with HCT-15 colon and with SN12C renal was > 100 µM throughout. The TGI in the assay on SNB-19 CNS was > 100 µM.

As to `Cn1c(=O)nc2n(-c3ccc(O)cc3)c3ccccc3nc-2c1=O`, the TGI with OVCAR-5 ovarian, in the assay with 786-0 renal, with KM20L2 colon, with HOP-18 NSCLC, with HCT-15 colon and in the assay with SN12C renal was > 100 µM throughout. In the assay on SNB-19 CNS, the TGI is > 100 µM.

Turning to `N#CC(N)=Nc1ccccc1`, the TGI in the assay on OVCAR-5 ovarian, in the assay on 786-0 renal, with KM20L2 colon, in the assay with HOP-18 NSCLC, with HCT-15 colon and with SN12C renal was > 100 µM in each case. Moreover, the TGI in the assay with SNB-19 CNS is > 100 µM.

Take `O=C(/C=C/c1ccccc1)Oc1cccc2cccnc12`: the TGI in the assay on OVCAR-5 ovarian was 80.6 µM; in the assay with 786-0 renal, > 100 µM; in the assay with KM20L2 colon, > 39.3 µM; with HOP-18 NSCLC, > 100 µM; in the assay on HCT-15 colon, 26.2 µM; in the assay on SN12C renal, > 58.6 µM. Moreover, the TGI with SNB-19 CNS is > 75.2 µM.

`Nc1ncnc2c1ncn2C1OC(CSCC(F)(F)F)C(O)C1O` (stereo not drawn): the TGI with OVCAR-5 ovarian, in the assay with 786-0 renal, with KM20L2 colon, with HOP-18 NSCLC, in the assay with HCT-15 colon and with SN12C renal was > 100 µM in each case. Moreover, the TGI in the assay with SNB-19 CNS was > 100 µM.
